Legend:
[1] = system: SW620 human colorectal adenocarcinoma cells; experiment: CV viability assay, SW620; format: cell-based; conditions: SW620, 72 h exposure, mean ± SD
Excerpt: (§1) The rat astrocytoma C6 cell line and murine melanoma B16 cell line were kindly gifted by Dr. L. Harhaji–Trajkovic, Institute for Biological Research “Sinisa Stankovic”—National Institute of Republic of Serbia (IBISS), and from Dr. Sinisa Radulovic (Institute for Oncology and Radiology of Serbia), respectively. Human colorectal (SW620 and HCT116), breast (MCF-7), and ovarian (A2780) cancer cell lines and non-malignant fibroblast cell line (MRC5) were purchased from the American Type Culture Collection (ATCC, Manassas, Virginia, USA). […] For viability assays, cells were seeded in listed densities/well: B16 and C6: 3 × 10^3; SW620: 9 × 10^3; A2780 and HCT116: 5 × 10^3; MCF-7: 8 × 10^3 and MRC5: 7 × 10^3. For flow cytometry, A2780 cells were seeded at 2 × 10^5 density/well in 6-well plates. Peritoneal macrophages were collected from the peritoneal cavity of C57BL/6 mice from the animal facility of IBISS by cavity lavage with ice-cold PBS. […] Macrophages were counted, seeded at 2 × 10^5 cells/well in 96-well plates for viability assay, and then left for 2 h to adhere. Before treatment, non-adherent cells were removed. The handling of animals and protocol for obtaining macrophages is in the agreement with the rules of the European Union and approved by the Institutional Animal Care and Use Committee at IBISS (No. 02-09/16).
(§2) Stock solutions of 1b, 1c, 1d, and 1e were prepared in ethanol at concentration of 20 mM and kept at −20 °C, while 10 mM stock solution of cisplatin was prepared in DMF just before the usage. Desired final concentrations were obtained by dilution in culture medium.
(§3) Cells were treated with various concentrations (up to 50 or 100 µM) of the above-mentioned complexes for 72 h. For the detection of mitochondrial respiration, cells were cultivated in the presence of MTT staining solution (0.5 mg/mL) for approximately 1 h at 37 °C. The dye was then discarded, and the formed formazan crystals (purple) were dissolved in DMSO. For an evaluation of viable attached cells, cells were fixed with 4% PFA for 10 min at room temperature, and subsequently stained for 15 min with 0.02% CV solution. […] The absorbance was measured with an automated microplate reader at 540 nm, with a reference wavelength of 670 nm. The IC50 values were calculated using a four-parameter logistic function and presented as mean ± SD from three independent experiments.

B16 mouse melanoma cells [2] = experiment: CV (crystal violet) viability assay, B16; format: cell-based; conditions: B16, 72 h exposure, mean ± SD
Excerpt: as §1, §2, §3

[3] = system: A2780 human ovarian cancer cells; experiment: MTT viability assay, A2780; format: cell-based; conditions: A2780, 72 h exposure, mean ± SD
Excerpt: as §1, §2, §3

C6 rat glioma cells [4] = experiment: CV viability assay, C6; format: cell-based; conditions: C6, 72 h exposure, mean ± SD
Excerpt: as §1, §2, §3

[5] = system: HCT116 human colorectal carcinoma cells; experiment: MTT viability assay, HCT116; format: cell-based; conditions: HCT116, 72 h exposure, mean ± SD
Excerpt: as §1, §2, §3

C6 rat glioma cells [6] = experiment: MTT viability assay, C6; format: cell-based; conditions: C6, 72 h exposure, mean ± SD
Excerpt: as §1, §2, §3

[7] = system: SW620 human colorectal adenocarcinoma cells; experiment: MTT viability assay, SW620; format: cell-based; conditions: SW620, 72 h exposure, mean ± SD
Excerpt: as §1, §2, §3

B16 mouse melanoma cells [8] = experiment: MTT viability assay, B16; format: cell-based; conditions: B16, 72 h exposure, mean ± SD
Excerpt: as §1, §2, §3

[9] = system: panel of six human and rodent cancer cell lines and MRC5; experiment: Cytotoxic activity over the whole cell line panel (MTT and CV); format: cell-based; conditions: 72 h; for Cytotoxic activity in words: all investigated cell lines
Experimental: Cells were treated with various concentrations (up to 50 or 100 µM) of the above-mentioned complexes for 72 h. For the detection of mitochondrial respiration, cells were cultivated in the presence of MTT staining solution (0.5 mg/mL) for approximately 1 h at 37 °C. The dye was then discarded, and the formed formazan crystals (purple) were dissolved in DMSO. For an evaluation of viable attached cells, cells were fixed with 4% PFA for 10 min at room temperature, and subsequently stained for 15 min with 0.02% CV solution. Cells were then washed with tap water, dried in air, and the CV dye was dissolved in 33% acetic acid. The absorbance was measured with an automated microplate reader at 540 nm, with a reference wavelength of 670 nm. The IC50 values were calculated using a four-parameter logistic function and presented as mean ± SD from three independent experiments.

[10] = system: MRC5 human fibroblast cells; experiment: CV viability assay, MRC5; format: cell-based; conditions: MRC5, 72 h exposure, mean ± SD
Excerpt: as §1, §2, §3

[11] = system: HCT116 human colorectal carcinoma cells; experiment: CV viability assay, HCT116; format: cell-based; conditions: HCT116, 72 h exposure, mean ± SD
Excerpt: as §1, §2, §3

[12] = Stability in D2O mixtures by 1H NMR; format: physicochemical; conditions: for Variation of 1H NMR spectra on storage: acetone-d6/D2O 2:1 (1b,d) or methanol-d4/D2O 2:1 (1c), 72 h at 37 °C, progressive precipitation
Experimental: Complexes were dissolved in acetone-d6/D2O 2:1 (1b,d), DMSO-d6/D2O 2:1 (2a–d and 3), or methanol-d4/D2O 2:1 (1c) ([Ir] ≈ 10^−3 mol L^−1), then dimethyl sulfone (0.05 mL, 0.164 mmol) was added as internal standard. The mixtures were filtered through a celite pad, and the filtrated solutions were analyzed by ^1H NMR spectroscopy.
The solutions were then stored for 72 h at 37 °C, and new NMR analyses were subsequently performed.

[13] = system: MCF-7 human breast cancer cells; experiment: MTT viability assay, MCF-7; format: cell-based; conditions: MCF-7, 72 h exposure, mean ± SD
Excerpt: as §1, §2, §3

[14] = system: A2780 human ovarian cancer cells; experiment: CV viability assay, A2780; format: cell-based; conditions: A2780, 72 h exposure, mean ± SD
Excerpt: as §1, §2, §3

[15] = system: MCF-7 human breast cancer cells; experiment: CV viability assay, MCF-7; format: cell-based; conditions: MCF-7, 72 h exposure, mean ± SD
Excerpt: as §1, §2, §3

[16] = system: MRC5 human fibroblast cells; experiment: MTT viability assay, MRC5; format: cell-based; conditions: MRC5, 72 h exposure, mean ± SD
Excerpt: as §1, §2, §3

A2780 cells [17] = experiment: Cell proliferation, CFSE flow cytometry; format: cell-based, human; conditions: A2780, IC50 doses, 72 h of incubation
Experimental: (§4) Experiments were carried out in three independent replicates.

A2780 cells [18] = experiment: Senescence, FDG assay of beta galactosidase activity, flow cytometry; format: cell-based, human; conditions: A2780, IC50 doses, 48 h, in comparison to the control
Experimental: as §4

A2780 cells [19] = experiment: Autophagosomes, acridine orange flow cytometry; format: cell-based, human; conditions: A2780, IC50 doses, 48 h, AO
Experimental: as §4

[20] = system: primary mouse peritoneal cells; experiment: Viability of primary mouse peritoneal cells (macrophages); format: cell-based
Excerpt: The rat astrocytoma C6 cell line and murine melanoma B16 cell line were kindly gifted by Dr. L. Harhaji–Trajkovic, Institute for Biological Research “Sinisa Stankovic”—National Institute of Republic of Serbia (IBISS), and from Dr. Sinisa Radulovic (Institute for Oncology and Radiology of Serbia), respectively. Human colorectal (SW620 and HCT116), breast (MCF-7), and ovarian (A2780) cancer cell lines and non-malignant fibroblast cell line (MRC5) were purchased from the American Type Culture Collection (ATCC, Manassas, Virginia, USA). […] For viability assays, cells were seeded in listed densities/well: B16 and C6: 3 × 10^3; SW620: 9 × 10^3; A2780 and HCT116: 5 × 10^3; MCF-7: 8 × 10^3 and MRC5: 7 × 10^3. For flow cytometry, A2780 cells were seeded at 2 × 10^5 density/well in 6-well plates. […] Macrophages were counted, seeded at 2 × 10^5 cells/well in 96-well plates for viability assay, and then left for 2 h to adhere. […]
Cells were treated with various concentrations (up to 50 or 100 µM) of the above-mentioned complexes for 72 h. […] The absorbance was measured with an automated microplate reader at 540 nm, with a reference wavelength of 670 nm. The IC50 values were calculated using a four-parameter logistic function and presented as mean ± SD from three independent experiments.

A2780 cells [21] = conditions: A2780, IC50 doses, 48 h, AnnV/PI
Experimental: as §4

A2780 cells [22] = experiment: Intracellular nitric oxide, DAF-FM flow cytometry; format: cell-based, human; conditions: A2780, IC50 doses, 48 h, with respect to untreated cultures
Experimental: as §4

A2780 cells [23] = experiment: Mitochondrial membrane potential, DiOC6(3) flow cytometry; format: cell-based, human; conditions: A2780, IC50 doses, 24 h, in comparison with untreated cells
Experimental: as §4

A2780 cells [24] = experiment: ROS/RNS, DHR123 flow cytometry; format: cell-based, human; conditions: A2780, IC50 doses, 48 h, DHR123, with respect to untreated cultures
Experimental: as §4

Compound | IC50 [1] | IC50 (B16 mouse melanoma cells [2]) | IC50 [3] | IC50 (C6 rat glioma cells [4]) | IC50 [5] | IC50 (C6 rat glioma cells [6]) | IC50 [7] | IC50 (B16 mouse melanoma cells [8]) | Cytotoxic activity in words [9] | IC50 [10] | IC50 [11] | Variation of 1H NMR spectra on storage [12] | IC50 [13] | IC50 [14] | IC50 [15] | IC50 [16] | also measured
CCC[c-]1c(C)c(C)c(C)c1C.CCC[c-]1c(C)c(C)c(C)c1C.[Cl-].[Cl-].[Cl-].[Cl-].[Ir+3].[Ir+3] [Complex 1c] | 45 ± 8 µM | 44 ± 8 µM | 13 ± 1 µM | 54 ± 5 µM | 30 ± 4 µM | 27 ± 3 µM | 27 ± 2 µM | 28 ± 4 µM | moderate cytotoxicity | > 50 µM | 38 ± 3 µM | no significant variations | 28 ± 5 µM | 39 ± 7 µM | 55 ± 8 µM | 36 ± 2 µM | –
CC1=C(C)[C](c2ccc(F)cc2)([Ir]([Cl])[Cl])C(C)=C1C.CC1=C(C)[C](c2ccc(F)cc2)([Ir]([Cl])[Cl])C(C)=C1C [Complex 1d] | 18.5 ± 0.4 µM | 28.1 ± 0.1 µM | 16 ± 0.3 µM | 49 ± 1 µM | 8.1 ± 0.7 µM | 34 ± 2 µM | 8 ± 2 µM | 20.4 ± 0.1 µM | moderate cytotoxicity | 22.2 ± 0.1 µM | 14.5 ± 1.5 µM | no significant variations | 9.2 ± 0.5 µM | 20.2 ± 0.3 µM | 30 ± 0.4 µM | 19.1 ± 0.2 µM | –
CS(C)=O.Cc1c(C)c(C)[c-](-c2ccc(O)cc2)c1C.[Cl][Ir+][Cl] [Complex 3, (4-(2,3,4,5-tetramethylcyclopenta-1,4-dien-1-yl)phenol)dimethylsulfoxide iridium(III)dichloride] | > 100 µM | > 100 µM | – | > 100 µM | > 100 µM | > 100 µM | > 100 µM | > 100 µM | inactive | > 100 µM | > 100 µM | – | > 100 µM | – | > 100 µM | > 100 µM | Fraction of unaltered compound ([12]; DMSO-d6/D2O 2:1, 72 h at 37 °C, 1H NMR, dimethyl sulfone standard): 98%
tetramethylcyclopentadienyl)(2-phenylpyridine)iridium(III)chloride [Complex 2b] | 2.9 ± 0.5 µM | 3 ± 0.1 µM | 5.5 ± 0.5 µM | 2.6 ± 0.1 µM | 8 ± 0.2 µM | 2.4 ± 0.3 µM | 2.6 ± 0.1 µM | 2.5 ± 0.2 µM | – | 6 ± 2 µM | 7 ± 2 µM | – | 8.6 ± 0.2 µM | 4.4 ± 0.6 µM | 37 ± 3 µM | 6.7 ± 0.2 µM | Effect on cell proliferation (A2780 cells [17]): inhibition of cell proliferation; Increase of beta galactosidase activity (A2780 cells [18]): 38.4%; High percentage of autophagosomes (A2780 cells [19]): not recognized; Effect on viability of primary mouse peritoneal cells [20]: did not affect viability; Induction of apoptotic cell death (A2780 cells [21]): modest induction; Increase of intracellular level of NO (A2780 cells [22]): 40.9%; Mitochondrial membrane hyperpolarization (A2780 cells [23]): 32.3%; Increase of intracellular levels of H2O2, HOCl and ONOO− (in total) (A2780 cells [24]): 46.4%
N.N.[Cl][Pt][Cl] [Cisplatin, cisplatin, reference compound] | 11 ± 3 µM | 11.6 ± 0.3 µM | 1.9 ± 0.2 µM | 1.2 ± 0.1 µM | 1.5 ± 0.1 µM | 0.6 ± 0.2 µM | 11.6 ± 0.1 µM | 5.6 ± 0.2 µM | – | 0.8 ± 0.1 µM | 8 ± 0.7 µM | – | 0.8 ± 0.2 µM | 3.8 ± 0.5 µM | 1.2 ± 0.3 µM | 0.6 ± 0.2 µM | –
CC1=C(C)[C](c2ccc(O)cc2)([Ir]([Cl])[Cl])C(C)=C1C.CC1=C(C)[C](c2ccc(O)cc2)([Ir]([Cl])[Cl])C(C)=C1C [Complex 1e] | > 100 µM | > 100 µM | – | > 100 µM | 80 ± 3 µM | 90 ± 14 µM | > 100 µM | > 100 µM | substantially inactive | > 100 µM | 79 ± 8 µM | – | 88 ± 12 µM | – | 94 ± 8 µM | > 100 µM | IC50 ([9]; cell lines on which 1e is active, read-out: IC50 values, range over sensitive cell lines): 80 to 90 µM; Behaviour in aqueous media in the presence of DMSO ([12]; aqueous media with DMSO): rapid conversion into 3
Cc1[cH-]c(C)c(C)c1C.Cc1[cH-]c(C)c(C)c1C.[Cl-].[Cl-].[Cl-].[Cl-].[Ir+3].[Ir+3] [Complex 1b] | > 50 µM | > 50 µM | > 50 µM | > 50 µM | > 50 µM | > 50 µM | > 50 µM | > 50 µM | substantially inactive | > 50 µM | > 50 µM | no significant variations | > 50 µM | > 50 µM | > 50 µM | > 50 µM | –
